These results are taken from PubChem BioAssay AID790 (SRMLSC, 2007).

Calls of active or inactive are those of the source. The rule behind the calls is not given here.

Test [1] can be described thus: vps1Δ single mutant yeast growth suppression – S. cerevisiae, background strain comparison, dose response (AID 790). Conditions: S. cerevisiae vps1Δ mutant growth inhibition; measured here: background strain growth inhibition.
Test [2] deals with S. cerevisiae vps1Δ mutant growth inhibition. The description is as above.

Consider `Cc1ccc(CSc2nc3ccccc3cc2C=O)cc1`, for which the half-inhibitory concentration (IC50) is 2.1 µM in test [1] and 1.99 µM in test [2].
For `N#CC1=C2SCC(O)(c3ccccc3)N2C(=O)CC1c1ccccc1` (centres undefined), in that order: > 10 µM and > 10 µM (inactive).
For `O=C(OCn1nnc2ccccc2c1=O)c1cn(-c2ccccc2)nc1-c1cccnc1`, in that order: > 10 µM and > 10 µM (inactive).
Take `CCCOc1ccccc1N/C(=N/c1nc(C)cc(C)n1)NC(=O)COc1ccc(OC)cc1`: the half-maximal inhibitory concentration (IC50) in test [1] is > 10 µM; in test [2] it was > 10 µM (inactive).
Take `COc1cccc(-c2cc(C(=O)N3CCN(C(c4ccccc4)c4ccccc4)CC3)no2)c1`: the IC50 in test [1] was > 10 µM; in test [2], > 10 µM (inactive).
For `Cc1ccc(S(=O)(=O)N(CC(=O)N2CCC(C(N)=O)CC2)c2cccc(C(F)(F)F)c2)cc1`, in that order: > 10 µM and > 10 µM (inactive).
For `Cc1ccn2cc(-c3nonc3C)cc2c1`, in that order: > 10 µM and > 10 µM (inactive).
For `O=C1OCC(CO)(CO)N=C1NNc1ccc(Cl)c(Cl)c1`, in that order: 3.35 µM and 2.43 µM.
Turning to `Cc1nnc(-c2cccc(Br)c2)c2cn(-c3ccccc3Cl)nc12`, the IC50 in test [1] is 25.9 µM; in test [2] it was 2.01 µM.
For `COC(=O)C1=CN(CCCN2CCCC2=O)C=C(C(=O)OC)C1c1ccccc1C(F)(F)F` the same measures were > 10 µM and > 10 µM (inactive).
For `COc1ccc(C(=O)c2c(C(F)(F)F)oc3c2C(=O)c2ccccc2C3=O)cc1`, in that order: 2.32 µM and 1.99 µM.
Regarding `O=c1cccc2n1CC1CC2CN(S(=O)(=O)c2ccccc2)C1` (centres undefined), the IC50 in test [1] was > 10 µM; in test [2] it was > 10 µM (inactive).
For `O=C(OCn1ncc(Cl)c(Cl)c1=O)c1ccc(C(F)(F)F)cc1`, in that order: > 10 µM and > 10 µM (inactive).
For `CCn1c(SCC(=O)N2CCCc3ccccc32)nnc1-c1ccco1`, in that order: > 10 µM and > 10 µM (inactive).
With `CSc1ncccc1C(=O)OCC(=O)N1CCOCC1`, the IC50 was > 10 µM in test [1] and > 10 µM (inactive) in test [2].
For `CC(C)Oc1ccc(/C(O)=C2/C(=O)C(=O)N(CCN(C)C)C2c2ccco2)cc1` (centres undefined) the same measures were > 10 µM and > 10 µM (inactive).
For `CCCCOc1ccc(-c2ncc(C(=O)O)c(C)n2)cc1` the same measures were > 10 µM and > 10 µM (inactive).
For `CCc1cc(=O)oc2cc(C)c(CN3CCCC(C)C3)c(O)c12` (centres undefined), in that order: > 10 µM and > 10 µM (inactive).
For `O=C(Cn1ncc2c3ccccc3n(Cc3ccccc3F)c2c1=O)N1CCC2(CC1)OCCO2`, the results for the IC50 in test [1] and in test [2] were > 10 µM and > 10 µM (inactive), respectively.
For `O=C(NCC(c1cccnc1)N1CCN(c2ccccc2)CC1)C1CCCCC1` (centres undefined) the same measures were > 10 µM and > 10 µM (inactive).
For `COc1cccc(NC(=O)c2ccc(CN3CCN(c4ccccc4)CC3)cc2)c1` the same measures were > 10 µM and > 10 µM (inactive).
For `O=C1c2cccc3c([N+](=O)[O-])ccc(c23)C(=O)N1c1ccc(Cl)cn1`, in that order: 6.08 µM and 8.74 µM (inactive).
With `N=c1c2c(-c3ccccc3)c(-c3ccccc3)n(Cc3ccco3)c2ncn1Cc1ccco1`, the half-inhibitory concentration (IC50) in test [1] is 21.5 µM; in test [2] it was > 10 µM (inactive).
For `Cc1ccc(C)c(C(=O)NCc2ccncc2)c1`, in that order: > 10 µM and > 10 µM (inactive).
For `Cn1c2ccc(Cl)cc2c2nc3ccccc3nc21`, in that order: > 10 µM and > 10 µM (inactive).
`CC1CCCCC1NC(=O)CSc1nnnn1-c1ccccc1` (centres undefined): the IC50 was > 10 µM in test [1] and > 10 µM (inactive) in test [2].
For `CCCCCCCCNc1ncnc2ccccc12`, in that order: 14.8 µM and > 10 µM (inactive).
For `CC1CC(C)CN(CC(C)(C)NS(=O)(=O)c2ccc(Cl)cc2)C1` (centres undefined), in that order: > 10 µM and > 10 µM (inactive).
For `COc1ccc(C2C3=C(CCCC3=O)Nc3nc(-c4cc(OC)c(OC)c(OC)c4)nn32)cc1OC` (centres undefined) the same measures were > 10 µM and > 10 µM (inactive).
As for `COc1ccc(C2=NC(C(F)(F)F)(C(F)(F)F)c3c(n(C)c(=O)n(C)c3=O)N2)cc1`, the IC50 in test [1] is > 10 µM; in test [2] it was > 10 µM (inactive).
For `Clc1ccc(-c2cnc(Oc3ccccc3)nc2)cc1` the same measures were > 10 µM and > 10 µM (inactive).
For `CC(C)c1ccc(C2C3CSCC=C3C(C#N)=C(N)C2(C#N)C#N)cc1` (centres undefined) the same measures were 0.843 µM and 1.77 µM (inactive).
For `CCCCS(=O)(=O)/C=C\C=C/S(=O)(=O)CCCC` the same measures were 13.9 µM and 12.1 µM.
As for `c1coc(CNc2nc(N3CCCCC3)nc3ccccc23)c1`, the concentration for half-maximal inhibition (IC50) was > 10 µM in test [1] and > 10 µM (inactive) in test [2].
For `CCCc1cc(NCCCCO)n2c(nc3ccccc32)c1C#N` the same measures were > 10 µM and > 10 µM (inactive).
For the compound `Cc1ccc(S(=O)(=O)N2CC3CC(C2)c2cccc(=O)n2C3)cc1` (centres undefined), the half-maximal inhibitory concentration (IC50) in test [1] was > 10 µM; in test [2], > 10 µM (inactive).
For `CCOC(=O)c1c(NC(=O)CN2CCCCC2)sc2c1CCC(C=O)=C2Cl` the same measures were > 10 µM and > 10 µM (inactive).
Turning to `COc1ccc(N2CCN(C(=O)CCNS(=O)(=O)c3ccc(Br)s3)CC2)cc1`, the values for the IC50 in test [1] and in test [2] were > 10 µM and > 10 µM (inactive), respectively.
For `c1ccc(COc2ccc(CN3CCN(c4ccccn4)CC3)cc2)cc1`, in that order: > 10 µM and > 10 µM (inactive).
For `O=[N+]([O-])c1ccc(N/N=C/c2c[nH]c3ccccc23)c(S(=O)(=O)Nc2ccc(Cl)cc2)c1`, in that order: 2.5 µM and 2.47 µM.
On to `Nc1ccc(Oc2ccc3nc(-c4ccccc4)c(-c4ccccc4)nc3c2)cc1`, for which the half-maximal inhibitory concentration (IC50) was 1.21 µM in test [1] and 2.91 µM (inactive) in test [2].
For `O=C(NCc1ccco1)C(c1cccs1)N(C(=O)Cc1cccs1)c1ccccc1` (centres undefined) the same measures were > 10 µM and > 10 µM (inactive).
For `O=C1CC(N2CCN(c3ccc(Cl)c(Cl)c3)CC2)C(=O)N1` (centres undefined) the same measures were > 10 µM and 15.3 µM.
In the case of `CCN1C(=O)c2ccc(C(=O)NCc3ccccc3)cc2C1=O`, the IC50 is > 10 µM in test [1] and > 10 µM (inactive) in test [2].
In the case of `C=CCc1ccc(OCCCCN2CC(C)OC(C)C2)c(OC)c1` (centres undefined), the concentration for half-maximal inhibition (IC50) in test [1] was > 10 µM; in test [2], > 10 µM (inactive).
For `O=C(NCC(c1cccnc1)N1CCN(c2ccccc2)CC1)c1ccc2c(c1)OCO2` (centres undefined) the same measures were > 10 µM and > 10 µM (inactive).
Consider `CCC(=O)N(CCO)Cc1cc2ccc(C)c(C)c2[nH]c1=O`, for which the half-maximal inhibitory concentration (IC50) in test [1] was > 10 µM; in test [2], > 10 µM (inactive).
For `Cc1nc(NC(=O)c2ccccc2)sc1-c1csc(NCc2ccccc2)n1` the same measures were > 10 µM and 1.96 µM.
As for `CC(C)(C)n1nnnc1CN(Cc1cccnc1)Cc1ccccc1Cl`, the IC50 in test [1] was > 10 µM; in test [2], > 10 µM (inactive).
For `Cc1ccc(C(=O)NCc2occc2C(=O)O)o1` the same measures were > 10 µM and > 10 µM (inactive).
For `O=C1CN(C(=O)CSc2nnc(-c3ccccc3)n2Cc2ccc3c(c2)OCO3)c2ccccc2N1`, in that order: > 10 µM and > 10 µM (inactive).
For `Cc1cccc(CS(=O)(=O)Cc2ccc(C(=O)NCCCN3CCCC3)o2)c1` the same measures were > 10 µM and > 10 µM (inactive).
As to `O=C(C1CCN(S(=O)(=O)c2cccs2)CC1)N1CCCCCC1`, the IC50 was > 10 µM in test [1] and > 10 µM (inactive) in test [2].
As to `O=C(COc1ccc(Cl)cc1Cl)NCCCN1CCOCC1`, the results for the IC50 in test [1] and in test [2] were > 10 µM and > 10 µM (inactive), respectively.
For `Cc1c(Cc2ccccc2)c(=O)oc2c(C)c(OCc3nn[nH]n3)ccc12`, in that order: > 10 µM and > 10 µM (inactive).
Take `C=C(C)C1CC=C(CN2CCC(C(=O)OCC)CC2)CC1` (centres undefined): the figures for the IC50 in test [1] and in test [2] were > 10 µM and > 10 µM (inactive), respectively.
For `NC(=O)c1ccsc1NC(=O)c1nc(-c2ccccc2)n(-c2ccccc2)n1` the same measures were > 10 µM and > 10 µM (inactive).
For `CCOCCCNC(=O)c1cc2sc(Cl)cc2n1CC`, in that order: > 10 µM and > 10 µM (inactive).
For `CCCCSCCCNC(=O)Nc1cccc(OC)c1`, the concentration for half-maximal inhibition (IC50) in test [1] is > 10 µM; in test [2], > 10 µM (inactive).
For `O=C(OCn1ncc(Br)c(Br)c1=O)c1ccc(F)cc1` the same measures were 5.38 µM and 3.91 µM.
For `CCOC(=O)c1ccc(NC(=O)c2ccc(CN3CCOCC3)cc2)cc1` the same measures were > 10 µM and > 10 µM (inactive).
For `COCCCNc1ccnc2c(Cl)cccc12` the same measures were > 10 µM and > 10 µM (inactive).
Consider `O=C(NC1CCCC1)C(c1ccsc1)N(C(=O)Cc1cccs1)c1ccc(F)cc1` (centres undefined), for which the half-inhibitory concentration (IC50) in test [1] is > 10 µM; in test [2] it was > 10 µM (inactive).
For `Cn1nnc2cc(C(=O)Nc3cccnc3)ccc21` the same measures were > 10 µM and > 10 µM (inactive).
For `CCCCC(=O)Nc1nc(C)c(-c2csc(Nc3ccc(Cl)cc3)n2)s1`, in that order: 6.26 µM and 6.39 µM (inactive).
For `Nc1c(C(=O)OCC2CCCO2)c2nc3ccccc3nc2n1-c1ccc2c(c1)OCCO2` (centres undefined), in that order: > 10 µM and > 10 µM (inactive).
Take `Fc1ccc(-c2noc(C3CCN(Cc4cccnc4)CC3)n2)cc1`: the concentration for half-maximal inhibition (IC50) in test [1] was > 10 µM; in test [2], > 10 µM (inactive).

The term IC50 denotes the point on the concentration scale where inhibition reaches its midpoint.
